From patent US20020082180A1, “Fabric cleaning system” (Unilever Home & Personal Care USA, Division of Conopco, Inc., priority 2000, published 2002) come the findings set out here.

The data set is described as follows: log P, partitioning coefficient of the fluorescer between octanol and water. Particulars: octanol/water at ambient temperature. Type of data set: physicochemical. An excerpt: We have found the fluorescers of the present invention to be very effective when used with carbon dioxide whilst the fluorescers are readily soluble in carbon dioxide without the need for surfactants. A preferable selection of fluorescers can be described by their log P value. Log P being the partitioning coefficient of the fluorescer between octanol and water at ambient temperature, whereby P is the concentration of the fluorescer in octanol divided by the concentration of fluorescer in water. (Leo et al. Chem Rev 1971, 71, 525). If appropriate, the log P is determined in the presence of sodium and/or chloride as counterions. Accordingly, a preferred group of fluorescer has a log P of at least 2, more preferably at least 2.5. In many cases, the log P may also be estimated using specially designed programs, also described as clog P or calculated log P. However, if in certain cases these programs are inappropriate, the real log P should be measured.

Each structure is given as a SMILES string. Some results are limits rather than exact numbers.

The log P is the decadic logarithm of the partition coefficient of the neutral form, usually between octanol and water. A low value points to a more hydrophilic compound. As for `c1ccc2oc(-c3ccc(-c4nc5ccccc5o4)s3)nc2c1` [Tinopal™ SOP], the “log P” value is recorded as over 2.5.
